From US9930893B2, “Inhibitors of DXP synthase and methods of use thereof” (The Johns Hopkins University, priority 2014, dated 2018)
In brackets after ≈: the same amount, converted by molar mass. Several values for one entry are separate records, joined by “and”; a condition that tells them apart may be missing. Equal values may be shown once. Read-outs that look alike come from different tables or passages of the source.

Tests used:
[1] = molecular target: T1, E. coli DXP synthase (Escherichia coli, UniProt P77488); assay: biochemical
T1 construct: made in house
Description: FIG. 4A, FIG. 4B, and FIG. 4C are charts showing competitive inhibition of DXP synthase by pentylacetylphosphonate (PentAP; FIG. 4A), hexylacetylphosphonate (HexAP; FIG. 4B), and octylacetyl phosphonate (OctAP; FIG. 4C). Inhibition assays were performed as previously described^[18], [40]). […] Pyruvate concentration was varied from 12-240 μM and acetylphosphonate concentration was varied: 0 μM (∘), 10 μM (●), 25 μM (□) and 50 μM (▪). Experiments were performed in triplicate, and data were subjected to non-linear regression analysis for Ki determinations (GraphPad Prism). Representative Lineweaver-Burk plots (GraFit from Erithacus Software) are shown for PentAP (FIG. 4A), HexAP (FIG. 4B) and OctAP (FIG. 4C) to illustrate the competitive inhibition mode with respect to pyruvate.
Inhibition of DXP synthase was measured as previously described^[13], [18]. […] Acetylphosphonate concentration was varied from 0 to 250 μM. […] Experiments were performed in triplicate for BAP and in duplicate for iPrAP
In order to evaluate the inhibitory activity of BnAP against DXP synthase, a continuous spectrophotometric coupled assay was used to measure formation of DXP by monitoring IspC consumption of NADPH (340 nm). ^[2] DXP synthase reaction mixtures (previously described) including BnAP (15, 30, and 60 μM), IspC (1 μM) and NADPH (100 μM) were pre-incubated at 37° C. for 5 minutes. Initial rates were measured after the reaction was initiated by the addition of DXP synthase. Inhibition of the coupling enzyme (IspC) by BnAP was not observed up to 1.5 mM. Experiments were performed in triplicate. Double reciprocal analysis of data was carried out using GraFit version 7 from Erithacus Software.

[2] = molecular target: T2, Porcine pyruvate dehydrogenase (PDH E1 subunit) (Sus scrofa, UniProt P29804); assay: Inhibition of PDH by acetylphosphonates; format: biochemical; settings: Ki^PDH
T2 construct: Ki^PDH; μM); Ki^PDH
T2 sequence (P29804 1-390): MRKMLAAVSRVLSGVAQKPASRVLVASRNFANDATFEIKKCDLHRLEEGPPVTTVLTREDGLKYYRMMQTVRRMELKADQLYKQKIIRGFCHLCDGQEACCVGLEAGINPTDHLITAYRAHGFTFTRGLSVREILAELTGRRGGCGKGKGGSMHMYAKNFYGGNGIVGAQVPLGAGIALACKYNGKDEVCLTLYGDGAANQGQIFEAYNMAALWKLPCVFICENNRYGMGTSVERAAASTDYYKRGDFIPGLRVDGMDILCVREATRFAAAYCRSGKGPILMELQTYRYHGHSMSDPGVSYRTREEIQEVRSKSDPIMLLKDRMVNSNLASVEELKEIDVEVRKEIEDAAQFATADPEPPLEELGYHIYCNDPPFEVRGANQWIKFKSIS
Description: FIG. 6A, FIG. 6B, and FIG. 6C are charts showing Competitive inhibition of procine PDH E1 subunit by PentAP (FIG. 6A), HexAP (FIG. 6B) and OctAP (FIG. 6C). Inhibition assays were performed as previously described^[18]. Pyruvate concentration was varied from 12.5-250 μM and acetylphosphonate concentration was varied: 0 μM (∘), 250 μM (PentAP) or 200 μM (HexAP and OctAP) (●), 500 μM (□) and 1000 μM (▪). Experiments were performed in triplicate, and data were subjected to non-linear regression analysis for Ki determinations (GraphPad Prism). Representative Lineweaver-Burk plots (GraFit from Erithacus Software) are shown for PentAP (FIG. 6A), HexAP (FIG. 6B) and OctAP (FIG. […]) to illustrate the competitive inhibition mode with respect to pyruvate.
Pyruvate dehydrogenase activity was measured spectrophotometrically as previously reported ^[38] by monitoring absorbance changes at 340 nm due to reduction of NAD^+ by PDH. Reaction mixtures contained 100 mM HEPES (pH 8.0), 1 mg/mL BSA, 0.2 mM ThDP, 0.1 mM coenzyme A, 1 mM MgCl2, 2 mM cysteine, 0.3 mM tris(2-carboxyethyl)phosphine (TCEP). The reaction was initiated with enzyme (0.01 units/ml) and activity was monitored at 30° C. For inhibition studies, reaction mixtures (described above) including BnAP (0.5, 1, 2.25 mM) were pre-incubated at 30° C. for 5 minutes. Initial rates were measured immediately after reactions were initiated by addition of PDH (0.01 units/ml). Double reciprocal analysis of data was carried out using GraFit version 7 from Erithacus Software.

[3] = test system: wild-type K-12 E. coli (ATCC: MG1655); assay: Antimicrobial activity against E. coli K-12 grown in CAMHB; format: cell-based; settings: Escherichia coli, MG1655, 16 h, read-out: minimum inhibitory concentration (MIC90)
Description: FIG. 7A and FIG. 7B are charts showing representative growth curves are shown for BAP (FIG. 7A) and BnAP (FIG. 7B). Alkylacetylphosphonates exert dose-dependent delay in E. coli K-12 (MG 1655) growth in CAMHB. Fractional growth (measured at 16 h, blue arrow) was determined relative to the no drug control. Standardized cell cultures were exposed to increasing concentrations of acetylphosphonate, and growth was determined by measuring the OD600 for a period of 16 hours. Acetylphosphonate concentration was varied from 0-5 mM: No drug (light blue), 0.08 mM (orange), 0.16 mM (gray), 0.31 mM (yellow), 0.63 mM (blue), 1.25 mM (green), 2.5 mM (dark blue) and 5.0 mM (brown).
Thus, BnAP, PentAP, HexAP and OctAP, also shown to inhibit DXP synthase, were evaluated for antimicrobial activity against wild-type K-12 E. coli (ATCC: MG1655) grown in rich medium (CAMHB).

[4] = molecular target: T3, E. coli DXP synthase (DXPS) (Escherichia coli, UniProt P77488); format: biochemical; settings: for kcat: acceptor substrate turnover
T3 construct: made in house
T3 sequence (P77488 1-620): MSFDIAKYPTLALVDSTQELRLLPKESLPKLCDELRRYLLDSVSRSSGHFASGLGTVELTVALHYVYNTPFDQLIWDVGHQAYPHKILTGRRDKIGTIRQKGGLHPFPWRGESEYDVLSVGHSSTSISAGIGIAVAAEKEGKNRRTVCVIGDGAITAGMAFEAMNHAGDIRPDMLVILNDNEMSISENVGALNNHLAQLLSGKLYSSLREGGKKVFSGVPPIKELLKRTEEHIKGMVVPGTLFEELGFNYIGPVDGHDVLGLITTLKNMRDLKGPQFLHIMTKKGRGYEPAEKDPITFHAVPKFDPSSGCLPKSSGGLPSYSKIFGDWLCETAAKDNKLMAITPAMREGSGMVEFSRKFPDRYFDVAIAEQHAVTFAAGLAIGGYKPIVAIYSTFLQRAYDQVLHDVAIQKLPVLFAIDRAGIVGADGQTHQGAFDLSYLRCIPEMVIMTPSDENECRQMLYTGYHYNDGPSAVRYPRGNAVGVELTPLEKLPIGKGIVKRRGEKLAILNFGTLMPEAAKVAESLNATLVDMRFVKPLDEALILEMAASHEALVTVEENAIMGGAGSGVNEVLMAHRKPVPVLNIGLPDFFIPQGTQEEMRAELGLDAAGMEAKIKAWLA
Description: Reaction mixtures containing 100 mM HEPES, pH 8.0, 2 mM MgCl2, 5 mM NaCl, 1 mM ThDP, 1 mg/mL BSA, 10-20 mM pyruvate, 10% DMSO, 0.5 mM 5 mM nitroso substrate were pre-incubated at 37° C. for 5 min. […] Aliquots of enzymatic mixture were removed at various time intervals and quenched into an equal volume of cold methanol. Quenched mixtures were incubated on ice for 20 minutes. Precipitated proteins were removed by centrifugation, and the supernatant was analyzed by HPLC with UV detection using the following conditions: Flow rate=3 mL/min; Solvent A: 100 mM NH4OAc, pH 4.6; Solvent B: acetonitrile; Method: 0-100% B over 10 min. New products formed were extracted from the supernatant using ethyl acetate (3×). […] Products were subsequently characterized by mass spectrometry.
Reaction mixtures containing 100 mM HEPES, pH 8.0, 2 mM MgCl2, 5 mM NaCl, 1 mM ThDP, 1 mg/mL BSA, 10-20 mM pyruvate, 10% DMSO v/v, and 10-300 μM nitroso substrate were pre-incubated at 37° C. for 5 min. […] Substrate concentration as a function of time was determined from absorbance values using Beer's Law. Initial reaction rates were determined from the linear range of the reaction progress curve, usually within 1-3 min. Data analysis to determine kcat and Km for each alternative substrate was carried out using GraFit version 7 from Erithacus Software.

[5] = molecular target: T4, DXP synthase (Escherichia coli, UniProt P77488); assay: Inhibition of DXP formation by nitroso substrates (HPLC-based assay); format: biochemical, E. coli; settings: 30 μM D-GAP, 80 μM pyruvate, 37° C.; average ± SEM
T4 construct: made in house
T4 sequence (P77488 1-620): T3 sequence (P77488 1-620)
Description: Enzyme reactions were initiated by addition of 0.1 μM DXP synthase. Aliquots (150 μL) of the enzymatic mixture were removed between 0.5 and 3 minutes and quenched into ice-cold methanol (150 μL). Precipitated protein was removed by centrifugation, and the supernatant was diluted in an equal volume of water. The nitroso substrate was removed by extraction into acetonitrile (3×), using a previously described freeze-extraction technique. ^[32] […] The derivatization mixtures were analyzed by HPLC as previously described. ^[19] To determine initial reaction rates in the presence of varying inhibitor concentration, the D,L-GAP and DXP hydrazone HPLC peak areas were measured, and the product concentration was determined as a percent of total peak area and plotted against reaction time. Initial rates GraFit version 7 from Erithacus Software was utilized to generate IC50 curves.

[6] = test system: porcine PDH E1 subunit; format: biochemical
Description: Reaction mixtures containing 100 mM HEPES, pH 8.0, 2 mM MgCl2, 5 mM NaCl, 1 mM ThDP, 1 mg/mL BSA, 10-20 mM pyruvate, 10% DMSO v/v, and 10-300 μM nitroso substrate were pre-incubated at 37° C. for 5 min. Enzymatic reactions were initiated by addition of 0.5-2 μM DXP synthase (or 0.1 units/ml PDH) and monitored spectrophotometrically by measuring the rate of disappearance of the nitroso substrate at its corresponding λmax. Substrate concentration as a function of time was determined from absorbance values using Beer's Law. Initial reaction rates were determined from the linear range of the reaction progress curve, usually within 1-3 min. Data analysis to determine kcat and Km for each alternative substrate was carried out using GraFit version 7 from Erithacus Software.

[7] = Ki (DXP synthase), competitive with respect to pyruvate
[8] = 10-20 mM pyruvate, pH 8.0, 10% DMSO, 37° C., average ± SEM
[9] = acceptor substrate, 10-20 mM pyruvate, pH 8.0, 10% DMSO, 37° C., average ± SEM
[10] = Table 4, read-out: In vitro DXP syn IC50

Work on `C=CCOP(=O)(O)C(C)=O` [Compound 12] yielded an IC50 [1] of 20 µM.

`CC(=O)P(=O)(O)OCc1ccccc1` [Compound 1, benzyl acetylphosphonate] gave a Ki [1, 7] of 10.4 ± 1.3 µM, a Ki ([1]; Ki (DXP synthase, with respect to D-GAP), uncompetitive with respect to D-GAP, 200 μM pyruvate) of 70 ± 8 µM and a Ki ([1]; Ki^DXPS, Table 5 (no unit in table; μM), vs pyruvate) of 10 ± 1 µM. The Ki ([2]; Table 5 (no unit in table; μM)) was 880 ± 78 µM, the Ki ([2]; competitive with respect to pyruvate) was 882 ± 78 µM and the MIC90 [3] was 630 µM (≈ 135 µg/mL).

With `CC(=O)P(=O)([O-])OCCc1cccc2ccccc12.[Li+]` [Compound 5] the kcat [4, 8] was 0.0183 ± 0.0033 s⁻¹, the Km [4, 9] was 41 ± 10 µM and the IC50 [1, 10] was 77 µM. For the same compound, the Ki ([1]; Table 4, read-out: In vitro DXP syn Ki) was 55 µM.

In the case of `O=Nc1ccc(O)c2ncccc12` [Compound 10], the “substrate usage by DXP synthase” value ([4]; in words) is reported as “did not act as substrate”.

Work on `NS(=O)(=O)c1ccc2c(N=O)c(O)ccc2c1` [Compound 7] yielded a kcat [4, 8] of 0.0197 ± 0.00067 s⁻¹ and a Km [4, 9] of 18 ± 4 µM.

Compound `CCCCCCOP(=O)(O)C(C)=O` [HexAP, Hexylacetylphosphonate] has a Ki [1, 7] of 8.9 ± 0.5 µM, a Ki ([2]; Table 5 (no unit in table; μM)) of 117 ± 9 µM and an MIC90 [3] of 5000 µM (≈ 1040 µg/mL).

Compound `COc1ccc2ccc(O)c(N=O)c2c1` [Compound 8] has a kcat [4, 8] of 0.0217 ± 0.0033 s⁻¹, a Km [4, 9] of 63 ± 7 µM and an IC50 [5] greater than 2000 µM.

In the case of `COc1cccc(COP(=O)([O-])C(C)=O)c1.[Li+]` [Compound 3], the kcat [4, 8] is reported as 0.6 ± 0.12 s⁻¹, the Km [4, 9] is reported as 99 ± 16 µM and the IC50 [1, 10] is reported as 37.4 µM.

`Cc1nn(C(C)C)c(C)c1N=O` [Compound 9] gave a kcat [4, 8] of 0.0233 ± 0.0033 s⁻¹, a Km [4, 9] of 387 ± 18 µM and an IC50 [5] greater than 2000 µM.

Compound `O=Nc1c(O)ccc2cc(Br)ccc12` [Compound 6] has a kcat [4, 8] of 0.0333 ± 0.0033 s⁻¹ and a Km [4, 9] of 24 ± 6 µM.

For `O=Nc1ccccc1` [Substrate 1, nitrosobenzene, reference compound], the “increase in Km for PDH compared to DXP synthase” value [6] was 2.7 fold.

Work on benzyl acetylphosphonate [Compound 1] yielded a kcat [4, 8] of 2.92 ± 0.317 s⁻¹, a Km [4, 9] of 133 ± 18 µM and a Km ([6]; 10-20 mM pyruvate, pH 8.0, 37° C., average ± SEM) of 350 ± 30 µM. For the same compound, the “Km^PDH/Km^DXPS” value ([6]; ratio porcine PDH E1 vs E. coli DXPS) was 2.7 and the IC50 [5] was 208 ± 20 µM.

Compound `O=C[C@H](O)COP(=O)(O)O` [D-GAP, D-glyceraldehyde 3-phosphate, reference compound] has a kcat [4, 8] of 1.7 ± 0.12 s⁻¹ and a Km ([4]; pH 8) of 28 ± 4 µM.

`CC(=O)P(=O)(O)OC(C)C` [iPrAP, Isopropylacetylphosphonate] was tested, and the IC50 ([1]; pyruvate 95 μM, D-GAP 56 μM, error 95% Confidence Interval, read-out: IC50 (DXP synthase)) was 250 µM and 245 µM.

Work on `CC(=O)P(=O)(O)OC1Cc2ccccc2C1` [Compound 2] yielded an IC50 [1, 10] of 64.5 µM.
